Biological target: Muscarinic acetylcholine receptor M2 (Homo sapiens) (UniProt P08172)
Experiment: Displacement of [3H]NMS from human recombinant muscarinic receptor M2 expressed in […] cell membranes measured after 3 hrs by radioligand competition binding assay

| SMILES | Ki [nM] |
| --- | --- |
| Cc1cc(/C=C/C=C/c2ccc(N(C)C)cc2)cc(C)[n+]1CCN1CCN(CCCCC2CCN(CC(=O)N3c4ccccc4NC(=O)c4ccccc43)CC2)CC1 | 3 |
| NCCNC(=O)CCc1cn(CCCCC2CCN(CC(=O)N3c4ccccc4NC(=O)c4ccccc43)CC2)cn1 | 0.589 |
